# Patent publication US11274314B2, “Herbicide safener combinations for acetyl co-enzyme a carboxylase herbicide resistant plants” (priority 2016, dated 2022)
# Experiments:
# [1] = system: quizalofop tolerant mutant wheat accessions and non-mutant check; assay: Cross-resistance study within the ACCase herbicide mode of action, plant survival; type: in vivo, Triticum aestivum L.; conditions: for survival: 28 DAT, clethodim 65, sethoxydim 264, fluazifop 361 g ai ha^−1, clethodim + 10.5 g ai ha^−1 quizalofop
# Description: (§1) Dose response. A dose response study was completed with 11, 23, 46, 92, and 184 g quizalofop ha^−1. Seven DAT the tops of plants were cut off above the newest above-ground growing point. Binomial evaluation of plant survival was performed 28 DAT. Differences were uncovered in the whole plant sensitivity to increasing application rates of quizalofop. […] Resistant to susceptible ratios for this experiment ranged from 1.6 to 7.5 based on survival/death of the plants. Cross-resistance. A cross-resistance study was conducted within the ACCase herbicide mode of action using herbicides normally lethal to wheat. Clethodim, sethoxydim, and fluazifop were used at rates of 65, 264, and 361 g ai ha^−1, plus a treatment of clethodim and 10.5 g ai ha^−1 quizalofop. Seven DAT the tops of plants were cut off above the newest above-ground growing point. Binomial evaluation of plant survival was performed 28 DAT. Tolerance of quizalofop mutants to clethodim and sethoxydim was low (Table 1). The presence of any cross tolerance presents evidence that stacking resistant ACCase copies into a single plant could lead to resistance to additional herbicides. At this stage only a third of the total ACCase in the plant would have a mutation and contain tolerance to ACCase inhibitors if the mutation is target-site-based. DNA sequencing. DNA was collected from 26 quizalofop-tolerant phenotypes. Genome-specific primers were developed to amplify sequences from the A, B, and D ancestral wheat genomes. Sequenced results were compared to previously cloned non-mutant wheat sequences to determine any nucleotide substitutions present. […] This mutation on the A genome was found in eight accessions, on the B genome in nine accessions, and on the D genome in nine accessions. No accession had more than one of these SNPs. The mutation was a C to T substitution resulting in an alanine to valine change (FIG. 7). Each accession with higher survival than the background contained one of these SNPs. Based on the chromatograph patterns, the majority these SNPs are also believed to be homozygous in the plant. ACCase enzyme characterization. An in-vitro enzyme assay was conducted to observe ACCase in conjunction with quizalofop directly to determine if the presence of ACCase mutations decreases the ability of herbicides to inhibit ACCase activity. Four quizalofop concentrations of 0.1, 1, 10, and 100 μM were included in the assay along with a non-treated treatment. The experiment included four accessions which included a representative from the three mutations detected and non-mutagenized wheat. […] Calculated at the 125 level, the resistant to susceptible value for the A genome was 4.57, the B genome was 3.57 and the D genome was 10.86.
# [2] = system: single copy varieties AF28-A, AF26-B, AF10-D; assay: Safener potentiation of ACCase herbicide resistance in single copy wheat varieties; type: in vivo; conditions: safener combined with ACCase herbicide; single copy varieties vs multiple copy or multiple genome lines
# [3] = system: single-gene (AF28, AF26, AF10) and two-gene (AB17, AB157, BD4, AD91) wheat lines; assay: Field crop safety trial with and without safener
# Description: During the 2014-2015 growing season, a field crop safety trial was performed to assess these lines for relative levels of resistance and performance under two application timings, applied with and without the safener cloquintocet-mexyl.
# Determine relative levels of resistance between two-gene lines and single-gene lines. Determine which application timing (early or late spring) provided the highest crop safety.
# One quizalofop susceptible line (Hatcher), four two-gene breeding lines (CO14A006 [AB17], CO14A041[AB157], CO14A075 [BD4], CO14A065 [AD91) and three one-gene parent lines (AF28, AF26, and AF10) were compared. A split-split plot design was used in which quizalofop p-ethyl was applied at 92.5 g ai ha^−1 with 1% MSO corresponding to the highest likely label application rate on March 31st at the tillering growth stage, and on May 2nd at the jointing growth stage. Cloquintocet safener (10 g ai/ha) was included in the split-split plot design. In the analysis, visual injury ratings and height were assessed one month before harvest, and grain yield in grams per plot was also used as a response factor. The SAS statistical package and proc mixed were used for analysis with a tukey-adjusted p-value of 0.05 as the cutoff value. The analysis was sliced by the cloquintocet factor, and comparisons of timing were made within lines.
# [4] = system: ACCase, B genome mutation (alanine to valine at position 2004); assay: In-vitro ACCase enzyme assay, B genome SNP accession; type: biochemical, wheat
# Description: (§2) Dose response. A dose response study was completed with 11, 23, 46, 92, and 184 g quizalofop ha^−1. Seven DAT the tops of plants were cut off above the newest above-ground growing point. Binomial evaluation of plant survival was performed 28 DAT. Differences were uncovered in the whole plant sensitivity to increasing application rates of quizalofop. […] Resistant to susceptible ratios for this experiment ranged from 1.6 to 7.5 based on survival/death of the plants. Cross-resistance. A cross-resistance study was conducted within the ACCase herbicide mode of action using herbicides normally lethal to wheat. Clethodim, sethoxydim, and fluazifop were used at rates of 65, 264, and 361 g ai ha^−1, plus a treatment of clethodim and 10.5 g ai ha^−1 quizalofop. Seven DAT the tops of plants were cut off above the newest above-ground growing point. Binomial evaluation of plant survival was performed 28 DAT. Tolerance of quizalofop mutants to clethodim and sethoxydim was low (Table 1). […] The experiment included four accessions which included a representative from the three mutations detected and non-mutagenized wheat. […] Calculated at the 125 level, the resistant to susceptible value for the A genome was 4.57, the B genome was 3.57 and the D genome was 10.86.
# [5] = system: quizalofop-tolerant winter wheat accessions vs non-mutant Hatcher wheat; assay: Visual evaluation of quizalofop injury on quizalofop-tolerant accessions; type: in vivo, Triticum aestivum L.; conditions: nearly all of 18 quizalofop-tolerant accessions; 21.05 g ai ha^−1; 28 DAT; compared with non-mutant Hatcher
# Description: Plants were screened for visual injury, whole-plant quizalofop tolerance differences, cross-tolerance, and evaluated genotypically and enzymatically.
# Visual evaluation. 18 quizalofop-tolerant accessions were treated with 21.05 g ai ha^−1 quizalofop, a discriminating dose based on previous studies. Plants were evaluated 28 days after treatment (DAT) for visible injury to quizalofop on a scale of 0 to 100%, with 0 being no injury and 100 being complete desiccation. […] The accessions had few completely dead plants, with the exception of the one accession not different than the background.
# [6] = system: ACCase of non-mutagenized winter wheat; assay: In-vitro ACCase enzyme assay, non-mutagenized wheat; type: biochemical; conditions: non-mutagenized winter wheat vs mutant accessions; 0.1-100 μM
# Description: as §2
# [7] = system: ACCase, D genome mutation (alanine to valine at position 2004); assay: In-vitro ACCase enzyme assay, D genome SNP accession; type: biochemical, wheat; conditions: for ACCase tolerance to quizalofop vs background: D genome SNP
# Description: as §1, with “The mutation was a C to T substitution resulting in an alanine to valine change (FIG. 7). Each accession with higher survival than the background contained one of these SNPs. Based on the chromatograph patterns, the majority these SNPs are also believed to be homozygous in the plant. ACCase enzyme characterization. An in-vitro enzyme assay was conducted to observe ACCase in conjunction with quizalofop directly to determine if the presence of ACCase mutations decreases the ability of herbicides to inhibit ACCase activity. Four quizalofop concentrations of 0.1, 1, 10, and 100 μM were included in the assay along with a non-treated treatment.” left out
# [8] = system: ACCase, A genome mutation (alanine to valine at position 2004); assay: In-vitro ACCase enzyme assay, A genome SNP accession; type: biochemical, wheat
# Description: as §2
SMILES,survival ([1]; Accession 0 (non-mutant check)) [%],survival ([1]; Accession 1) [%],survival ([1]; Accession 2) [%],survival ([1]; Accession 3) [%],survival ([1]; Accession 4) [%],survival ([1]; Accession 5) [%],survival ([1]; Accession 6) [%],survival ([1]; Accession 7) [%],survival ([1]; Accession 8) [%],survival ([1]; Accession 9) [%],survival ([1]; Accession 10) [%],survival ([1]; Accession 11) [%],survival ([1]; Accession 12) [%],survival ([1]; Accession 13) [%],survival ([1]; Accession 14) [%],survival ([1]; Accession 15) [%],survival ([1]; Accession 16) [%],survival ([1]; Accession 17) [%],also measured
"CCSC(C)CC1CC(=O)C(/C(CC)=N/OC/C=C/Cl)=C(O)C1 (centres unmarked) [Clethodim, (E,E)-(.+−.)-2-[1-[[(3-chloro-2-propenyl)oxy]imino]propyl]-5-[2-(ethylth-io)propyl]-3-hydroxy-2-cyclohexen-1-one]",0,10,0,0,0,0,0,0,25,17,0,0,17,0,0,0,0,0,
"CC(Oc1ccc(Oc2ccc(C(F)(F)F)cn2)cc1)C(=O)O (centres unmarked) [Fluazifop, (.+−.)-2-[4-[[5-(trifluoromethyl)-2-pyridinyl]oxy]phenoxy]propanoic acid]",0,0,0,0,0,0,0,0,0,0,0,0,0,0,0,0,0,0,
"CCCC(=NOCC)C1=C(O)CC(CC(C)SCC)CC1=O (centres unmarked) [Sethoxydin, 2-[1-(ethoxyimino)-butyl]-5-[2-(ethylthio)propyl]-3-hydroxy-2-cylohexen-1-one]",0,0,0,0,0,0,0,0,0,0,0,8,8,0,0,0,0,0,Tolerance of quizalofop mutants ([1]; summary of Table 1): low
O=C(O)COc1ccc(Cl)c2cccnc12 [cloquintocet acid],,,,,,,,,,,,,,,,,,,potentiation of resistance to acetyl-CoA carboxylase herbicides [2]: just as effectively resistance as the multiple copy lines
CCOC(=O)[C@@H](C)Oc1ccc(Oc2cnc3cc(Cl)ccc3n2)cc1 [quizalofop p-ethyl],,,,,,,,,,,,,,,,,,,"crop injury (reduced height, reduced yield, or increased injury rating) ([3]; May (jointing) compared to March (tillering) treatment timing): consistently higher crop injury; crop safety ([3]; all two-gene lines, 92.5 g ai ha^−1, no safener, vs single-gene lines): much higher levels of crop safety; crop injury compared to the untreated control ([3]; single-gene line AF28, 92.5 g ai ha^−1, no safener): only showed injury with the May treatment timing; crop injury compared to the untreated control ([3]; single-gene lines, 92.5 g ai ha^−1 with 1% MSO, no safener, March and May timings): significant injury; crop injury ([3]; two-gene line AD91, 92.5 g ai ha^−1, with or without safener, March or May): no crop injury for any treatment combination; crop injury ([3]; two-gene lines AB157 and AB17, 92.5 g ai ha^−1, no safener): crop injury in the May treatment timing"
"CC(Oc1ccc(Oc2cnc3cc(Cl)ccc3n2)cc1)C(=O)O (centres unmarked) [quizalofop, (.+−.)-2-[4-[(6-chloro-2-quinoxalinyl)-oxy]phenoxy]propanoic acid]",,,,,,,,,,,,,,,,,,,"ACCase tolerance to quizalofop vs background ([4]; B genome SNP, 10 μM quizalofop): higher than background levels of tolerance; resistant to susceptible value, calculated at the 125 level ([4]; B genome, vs non-mutagenized wheat): 3.57; visible injury to quizalofop on a scale of 0 to 100% [5]: more tolerant to quizalofop than non-mutant Hatcher wheat; ACCase sensitivity to quizalofop [6]: greater sensitivity; ACCase tolerance to quizalofop vs background ([7]; 10 μM quizalofop): higher than background levels of tolerance; ACCase tolerance to quizalofop vs background ([7]; 100 μM quizalofop): higher than background tolerance; resistant to susceptible value, calculated at the 125 level ([7]; D genome, vs non-mutagenized wheat): 10.86; ACCase tolerance to quizalofop vs background ([8]; A genome SNP, 100 μM quizalofop): higher than background tolerance; resistant to susceptible value, calculated at the 125 level ([8]; A genome, vs non-mutagenized wheat): 4.57"
